SMILES strings stand for the structures. Counter-ions that a name gives are not always drawn. Activity calls are given as the source filed them.

By EC50 is commonly meant the concentration needed to bring the measured effect to its halfway point. As a reminder, the IC50 is the point on the concentration scale where inhibition reaches its midpoint. For orientation: AC50 means the midpoint of the concentration-response curve, whichever way the signal moves. What is called GI50 is the concentration that inhibits growth by half.

Assay [1] can be described thus: inhibitors of SNCA 5'UTR-driven reporter translation, confirmation, H4 neuroglioma cells, luminescence (AID 1988). The class given is functional, cell-based.
Assay [2] addresses T1, Zinc finger protein mex-5 (Caenorhabditis elegans, UniProt Q9XUB2).
T1 sequence (Q9XUB2 whole entry): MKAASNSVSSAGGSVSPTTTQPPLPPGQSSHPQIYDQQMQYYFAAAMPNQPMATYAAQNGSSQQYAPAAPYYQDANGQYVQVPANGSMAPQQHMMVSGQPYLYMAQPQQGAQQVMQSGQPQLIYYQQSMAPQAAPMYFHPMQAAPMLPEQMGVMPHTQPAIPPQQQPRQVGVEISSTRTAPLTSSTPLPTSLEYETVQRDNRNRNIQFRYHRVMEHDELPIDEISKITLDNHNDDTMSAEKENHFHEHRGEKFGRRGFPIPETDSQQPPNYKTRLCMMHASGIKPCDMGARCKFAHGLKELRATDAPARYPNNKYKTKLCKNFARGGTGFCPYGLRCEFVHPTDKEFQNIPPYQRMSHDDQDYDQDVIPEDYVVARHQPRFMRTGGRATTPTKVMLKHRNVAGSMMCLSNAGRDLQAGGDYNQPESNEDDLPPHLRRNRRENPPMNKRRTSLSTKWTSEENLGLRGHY
Kind of assay: MEX-5/TCR-2 RNA interaction inhibitors, dose response, biochemical, C. elegans, fluorescence polarization (AID 1960). Background: Polarisation of emitted light reports the rotation of a fluorescent probe.

For assay [3], the target named is T2, RNA-binding protein pos-1 (Caenorhabditis elegans, UniProt G5EF15).
T2 sequence (G5EF15 whole entry): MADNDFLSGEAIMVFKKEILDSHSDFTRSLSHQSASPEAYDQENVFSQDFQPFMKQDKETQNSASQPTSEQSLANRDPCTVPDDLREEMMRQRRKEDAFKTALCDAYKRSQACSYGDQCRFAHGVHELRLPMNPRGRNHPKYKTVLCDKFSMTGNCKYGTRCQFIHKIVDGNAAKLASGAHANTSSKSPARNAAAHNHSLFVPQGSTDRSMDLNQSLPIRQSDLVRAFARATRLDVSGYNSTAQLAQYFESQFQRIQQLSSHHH
Kind of assay: inhibitors of POS-1/mex-3 RNA binding, dose response, biochemical, fluorescence polarization (AID 1964).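 Note: purified POS-1 fused to maltose binding protein made in E. coli; potency of compounds blocking POS-1 binding to fluorescent RNA.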

A short description of assay [4]: inhibitors of intracellular T. cruzi replication, confirmation, NIH3T3 host cells, beta-gal luminescence (AID 2044).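 Note: intracellular parasites grown in NIH/3T3 mouse fibroblasts as host cells; luminescent beta-galactosidase reporter signal from transgenic T. cruzi replicating inside host cells; inhibitors lower the luminescence signal.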 Type of assay: functional, cell-based.
Assay [5] is described as follows: Luminescence Cell-Based Dose Response HTS to Identify Inhibitors of 5'UTR Stem-Loop Driven Prion Protein mRNA Translation in H4 Neuroglioblastoma Cells. [Related pubchem assays: 1827 (Project Summary), 1813 (Primary HTS)]. Type of assay: functional.
A short description of assay [6]: cytotoxicity toward NIH3T3 fibroblasts, dose response, counter-screen, cell-based, ATP luminescence, mouse fibroblasts (AID 2010).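 Note: cells exposed to compound for about 90 hours before reading.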 Type of assay: functional. A general note: The purpose of a counterscreen is to sort out artefacts and off-target activity.
Assay [7] in a line: inhibitors of firefly luciferase expression or activity, dose response, H4 neuroglioma cells, luminescence (AID 1990). The class given is functional, cell-based.
Assay [8] deals with T3, Short transient receptor potential channel 4 (Mus musculus, UniProt Q9QUQ5).
T3 sequence (Q9QUQ5 whole entry): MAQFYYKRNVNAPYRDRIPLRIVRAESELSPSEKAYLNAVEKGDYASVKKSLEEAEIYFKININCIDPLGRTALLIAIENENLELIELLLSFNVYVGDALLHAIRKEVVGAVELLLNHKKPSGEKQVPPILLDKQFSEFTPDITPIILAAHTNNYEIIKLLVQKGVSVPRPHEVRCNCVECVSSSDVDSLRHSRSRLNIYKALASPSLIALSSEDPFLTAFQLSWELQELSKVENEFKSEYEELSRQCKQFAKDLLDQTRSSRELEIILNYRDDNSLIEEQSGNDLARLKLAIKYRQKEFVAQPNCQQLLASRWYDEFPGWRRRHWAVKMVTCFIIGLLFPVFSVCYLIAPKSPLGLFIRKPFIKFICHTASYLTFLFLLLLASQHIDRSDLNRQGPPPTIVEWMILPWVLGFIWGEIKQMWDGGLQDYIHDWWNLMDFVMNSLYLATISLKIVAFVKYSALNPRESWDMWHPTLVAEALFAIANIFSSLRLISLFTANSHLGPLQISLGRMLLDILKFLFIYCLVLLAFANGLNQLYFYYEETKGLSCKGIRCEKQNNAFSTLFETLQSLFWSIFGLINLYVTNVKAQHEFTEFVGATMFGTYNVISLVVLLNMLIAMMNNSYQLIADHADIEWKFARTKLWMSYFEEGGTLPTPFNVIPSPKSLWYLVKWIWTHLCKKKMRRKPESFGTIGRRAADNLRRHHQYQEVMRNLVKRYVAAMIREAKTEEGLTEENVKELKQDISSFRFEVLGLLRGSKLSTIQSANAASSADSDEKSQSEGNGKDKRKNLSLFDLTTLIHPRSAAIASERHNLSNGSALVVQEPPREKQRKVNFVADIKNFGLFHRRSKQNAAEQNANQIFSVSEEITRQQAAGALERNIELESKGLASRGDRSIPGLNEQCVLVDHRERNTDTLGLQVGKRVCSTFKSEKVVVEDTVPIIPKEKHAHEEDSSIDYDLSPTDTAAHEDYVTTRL
Kind of assay: mouse TRPC4 channel inhibitors, dose response, cell-based, HEK293 TRPC4/mu-opioid, Fluo-4 calcium (AID 434942).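 Note: potency of inhibitors blocking the TRPC4 calcium response.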 Type of assay: functional.

Assay [9] is described as follows: growth suppression of beta-catenin-knockout colon cells, dose response, cell-based, HCT116, human colon tumor (AID 1045).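 Note: HCT116 colon tumor cells with beta catenin knocked out; cells exposed to compound for 60 hours.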 The class given is functional.
Assay [10] in a line: growth suppression of PTEN-null colon cells, dose response, cell-based, HCT116 PTEN knockout (AID 1047).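 Note: HCT116 colon tumor cells with PTEN knocked out; cells exposed to compound for 60 hours before readout; potency for loss of cell viability measured by luminescence.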 The class given is functional.
Another assay deals with Fatty acid synthase (Homo sapiens, UniProt P49327). Kind of assay: FAS thioesterase domain inhibitors, dose response, biochemical, kinetic fluorescence intensity (AID 624326).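 Note: rate of fluorescence rise from hydrolysis of a fluorogenic O-methyl fluorescein ester substrate.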 Type of assay: functional.
In the next assay the test system is INS1. Kind of assay: beta cell apoptosis inhibitors, cytokine rescue, dose response, luminescence, retest (AID 449756).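 Note: cell death triggered by IL-1 beta plus TNF-alpha plus IFN-gamma mixture; protective hits raise ATP signal compared with cytokine alone wells.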 The class given is functional, cell-based. The note with it: Rattus norvegicus.
The next assay deals with SN12K1. Kind of assay: cells. The class given is functional. Conditions: Homo sapiens.
The next assay deals with P388/ADR. The assay is described as follows: cells. Type of assay: functional. The note with it: Mus musculus.
The next assay deals with P388. The assay is described as follows: cells. Type of assay: functional. The note with it: Mus musculus.
Assay [11] can be described thus: cells. Type of assay: functional, cell-based.
Assay [12] in a line: cells. The class given is functional, cell-based. This is another data set of the same source.
The nature of assay [13]: P. falciparum Dd2 growth inhibitors, dose response, SYBR Green, cherry-picked samples (AID 1159567). Type of assay: functional, cell-based.

Chain of Fatty acid synthase (P49327 whole entry, the tested form may be a part): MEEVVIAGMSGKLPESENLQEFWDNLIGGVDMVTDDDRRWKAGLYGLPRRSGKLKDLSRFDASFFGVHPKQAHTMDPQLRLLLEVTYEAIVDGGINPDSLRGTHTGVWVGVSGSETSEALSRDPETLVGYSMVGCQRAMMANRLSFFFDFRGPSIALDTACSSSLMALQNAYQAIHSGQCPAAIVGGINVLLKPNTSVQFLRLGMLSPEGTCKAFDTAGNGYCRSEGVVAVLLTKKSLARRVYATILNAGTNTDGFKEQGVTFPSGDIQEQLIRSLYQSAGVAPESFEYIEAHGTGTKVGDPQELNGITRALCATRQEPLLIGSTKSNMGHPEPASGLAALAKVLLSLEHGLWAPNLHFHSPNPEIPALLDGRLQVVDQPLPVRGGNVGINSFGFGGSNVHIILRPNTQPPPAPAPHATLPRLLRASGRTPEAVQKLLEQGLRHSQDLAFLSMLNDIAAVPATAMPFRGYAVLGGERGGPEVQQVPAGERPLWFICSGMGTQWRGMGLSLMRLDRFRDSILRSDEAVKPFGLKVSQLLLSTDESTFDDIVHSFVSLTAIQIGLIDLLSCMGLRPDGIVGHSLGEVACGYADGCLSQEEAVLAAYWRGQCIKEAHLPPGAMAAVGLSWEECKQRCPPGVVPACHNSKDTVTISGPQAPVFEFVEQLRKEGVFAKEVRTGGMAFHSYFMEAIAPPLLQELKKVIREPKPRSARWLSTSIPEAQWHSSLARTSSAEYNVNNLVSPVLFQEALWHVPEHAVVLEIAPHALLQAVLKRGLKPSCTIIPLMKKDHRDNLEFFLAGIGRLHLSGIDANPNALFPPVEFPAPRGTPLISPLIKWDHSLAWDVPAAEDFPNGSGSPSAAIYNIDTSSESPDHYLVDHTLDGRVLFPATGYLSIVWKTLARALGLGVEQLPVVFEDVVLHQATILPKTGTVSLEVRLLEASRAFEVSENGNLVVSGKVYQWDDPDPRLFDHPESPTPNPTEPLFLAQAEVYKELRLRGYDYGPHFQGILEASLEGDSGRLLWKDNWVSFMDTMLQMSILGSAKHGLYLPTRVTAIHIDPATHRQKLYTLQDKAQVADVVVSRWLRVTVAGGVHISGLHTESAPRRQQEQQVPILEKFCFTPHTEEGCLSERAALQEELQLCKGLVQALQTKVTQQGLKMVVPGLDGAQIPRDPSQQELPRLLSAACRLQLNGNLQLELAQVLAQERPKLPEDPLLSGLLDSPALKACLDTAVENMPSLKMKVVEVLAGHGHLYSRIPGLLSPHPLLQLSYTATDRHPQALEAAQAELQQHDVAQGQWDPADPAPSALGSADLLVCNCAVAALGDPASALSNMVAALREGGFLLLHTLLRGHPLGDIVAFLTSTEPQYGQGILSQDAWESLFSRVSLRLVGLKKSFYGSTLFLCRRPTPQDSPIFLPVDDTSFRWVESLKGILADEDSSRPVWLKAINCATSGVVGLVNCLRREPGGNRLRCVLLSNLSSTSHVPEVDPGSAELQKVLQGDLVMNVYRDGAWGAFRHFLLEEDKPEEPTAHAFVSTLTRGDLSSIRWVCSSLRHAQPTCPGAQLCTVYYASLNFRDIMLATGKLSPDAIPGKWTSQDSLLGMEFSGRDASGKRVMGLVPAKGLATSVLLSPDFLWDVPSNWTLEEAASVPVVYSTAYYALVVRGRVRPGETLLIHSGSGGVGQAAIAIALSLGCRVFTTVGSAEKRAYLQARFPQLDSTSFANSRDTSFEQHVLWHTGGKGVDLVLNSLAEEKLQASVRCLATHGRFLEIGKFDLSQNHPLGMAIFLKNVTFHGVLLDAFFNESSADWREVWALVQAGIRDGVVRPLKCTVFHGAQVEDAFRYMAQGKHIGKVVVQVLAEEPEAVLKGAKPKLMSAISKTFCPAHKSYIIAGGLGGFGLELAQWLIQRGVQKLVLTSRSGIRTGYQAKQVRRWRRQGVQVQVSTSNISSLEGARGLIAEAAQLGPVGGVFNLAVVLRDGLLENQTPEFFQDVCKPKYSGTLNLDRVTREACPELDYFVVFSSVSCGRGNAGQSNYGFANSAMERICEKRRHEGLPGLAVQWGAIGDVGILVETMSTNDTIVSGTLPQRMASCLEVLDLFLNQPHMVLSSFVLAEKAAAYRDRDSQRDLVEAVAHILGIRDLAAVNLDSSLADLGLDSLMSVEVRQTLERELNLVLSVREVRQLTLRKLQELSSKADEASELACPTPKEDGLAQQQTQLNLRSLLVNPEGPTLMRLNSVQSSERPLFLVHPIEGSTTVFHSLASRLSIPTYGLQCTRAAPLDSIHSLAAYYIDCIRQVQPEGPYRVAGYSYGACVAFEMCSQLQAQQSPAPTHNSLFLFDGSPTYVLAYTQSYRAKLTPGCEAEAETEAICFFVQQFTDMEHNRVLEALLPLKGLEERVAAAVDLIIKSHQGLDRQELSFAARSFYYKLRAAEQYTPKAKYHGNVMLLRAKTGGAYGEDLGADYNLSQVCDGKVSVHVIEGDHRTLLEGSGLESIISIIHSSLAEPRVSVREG

As for `N=c1c(S(=O)(=O)c2ccc(Cl)cc2)cc2c(=O)n3ccccc3nc2n1C1CCCC1`, the EC50 was 31.7 µM (active) in assay [1]; 148 µM (inconclusive) in [2]; 135 µM (active) in assay [3]; 0.87 µM (active) in [4]; > 120 µM (not active) in [5]; 11.4 µM (active) in assay [6]. Besides, the EC50 in [7] was 24.8 µM (active).
Take `CCOC(=O)c1c(NC(=O)C2CCCCC2C(=O)O)sc2c1CCCCC2` (configuration not stated): the EC50 in assay [8] is 5.96 µM (active).
Regarding `Cc1cc(C)cc(C(=O)NC(=S)Nc2ccc(-c3cc4ccccc4oc3=O)cc2)c1`, the EC50 in [9] was 12.4 µM (active); in [10], 11.7 µM (active).
Turning to `COC(=O)c1cc(C(=O)NC(C)C2CC3CCC2C3)cc([N+](=O)[O-])c1` (configuration not stated), the IC50 on Fatty acid synthase was 11.5 µM (active).
Turning to `Fc1ccccc1COc1ccccc1CNCc1ccncc1`, the EC50 in assay [8] is 7.5 µM (active); in assay [4], 1.45 µM (active); in assay [6] it was > 60 µM (not active).
Turning to `Cc1cccc2cc(CN(Cc3nnnn3Cc3ccccc3)C3CCCC3)c(O)nc12`, the EC50 in assay [8] is 0.149 µM (active).
Take `CC(=O)Nc1cccc(C(=O)/C=C/c2cccs2)c1`: the 50% effective concentration (EC50) was 7.79 µM (active) in [9] and 11.3 µM (active) in assay [10].
Consider `Cc1cccc(NC(=O)Nc2cccc(Oc3c(F)c(F)c(F)c(F)c3F)c2)c1`, for which the EC50 in assay [9] was 24.5 µM (active); in assay [4], 3.06 µM (active); in [10] it was 17.3 µM (active); in [6], 7.63 µM (active). In addition, the AC50 in the assay with INS1 was 4.92 µM (active).
Take `O=C(O)c1cn2c3c(cc(N4CCN(CCO)CC4)cc3c1=O)SCC2`: the GI50 in the assay on SN12K1 was 40.5 µM (inactive); in the assay with P388/ADR it was > 100 µM (inactive); in the assay with P388, 61.5 µM (inactive).
For `Cc1ccc(C)c(N2CCN(CCCNC(=O)Cn3cc4c(n3)CCCCC4)CC2)c1`, the EC50 in assay [9] is 11.8 µM (active); in assay [10] it was 14.5 µM (active).
For the compound `CC(OCC(O)CN(C)CCOc1ccccc1)c1ccc(Cl)cc1` (configuration not stated), the EC50 in [8] was 3.76 µM (active).
`CCOC(=O)c1c(NC(=O)CCC(=O)O)sc2c1CCCCC2`: the values for the concentration giving a half-maximal response (EC50) in the assay “cells [11]” and in the assay “cells [12]” were 24.5 µM (active) and > 350 µM (not active), respectively.
On the same counts, the results for `CCN(CCCCCN(C)C)Cc1cc2ccccc2o1` are > 350 µM (not active) and > 350 µM (not active).
Regarding `COc1cc(C(=O)Nc2nc(-c3ccc(Cl)cc3)c(C)s2)ccc1OCC(=O)Nc1ccc(F)cc1`, the figures for the EC50 in assay [9] and in assay [10] were 1.46 µM (active) and 1.92 µM (active), respectively.
In the case of `CCOc1c(Cl)cc(CNC(C)C(O)c2ccccc2)cc1OC` (configuration not stated), the EC50 in assay [8] was 1.33 µM (active).
As to `O=C(Nc1ccccc1)N(C1=NCCCCS1)c1cccc2ccccc12`, the EC50 in “cells [11]” is 43.7 µM (active); in “cells [12]”, > 350 µM (not active).
With `CC(=O)Nc1cccc(NC(=O)CS(=O)(=O)c2cn(CC(=O)N3CCOCC3)c3ccccc23)c1`, the EC50 in the assay “cells [11]” and in “cells [12]” was > 350 µM (not active) throughout.
Turning to `Cc1c(CN2CCC(n3nccc3NC(=O)CCc3ccccc3)CC2)cnn1C`, the half-maximal effective concentration (EC50) in [8] was 0.421 µM (active).
For the compound `O=C(NC(Cc1ccc(I)cc1)C(=O)O)c1ccc(Cl)cc1` (configuration not stated), the results for the GI50 with SN12K1, in the assay with P388/ADR and in the assay with P388 were > 100 µM (inactive), 62.1 µM (inactive) and 72.4 µM (inactive), respectively.
Consider `CC[C@@]1(O)C[C@H](OC2CC(N(C)C)C(O)C(C)O2)c2c(cc3c(c2O)C(=O)c2c(O)ccc(O)c2C3=O)[C@H]1C(=O)OC` (some centres not stated), for which the GI50 with SN12K1 was 0.0328 µM (active); with P388/ADR, 0.0175 µM (active); with P388, 0.0175 µM (active).
Consider `CCCCCCCCCCCCCCCCNCC(O)CN` (configuration not stated), for which the figures for the GI50 with SN12K1, in the assay with P388/ADR and in the assay with P388 were 1.77 µM (inactive), 2.05 µM (inactive) and 1.95 µM (inactive), respectively.
On the same counts, the results for `COC(=O)C1C(O)C(C)C(O)OC1C(C)C(O)C(C)/C=C\C=C(/C)C(=O)Nc1c(C)c(OC(C)=O)c2c(c1O)C(=O)C(C)=C1OCOC(/C(C)=C/C(C)=O)=C12` (configuration not stated) are 13.3 µM (inactive), 13.2 µM (inactive) and 1.93 µM (inactive).
On the same counts, the results for `O=S(=O)(O)c1ccc(/N=N\c2ccc(/N=N\c3ccc(/C=C/c4ccc(/N=[N+](/[O-])c5ccc(/C=C/c6ccc(/N=N/c7ccc(/N=N\c8ccc(S(=O)(=O)O)cc8)cc7)cc6S(=O)(=O)O)c(S(=O)(=O)O)c5)cc4S(=O)(=O)O)c(S(=O)(=O)O)c3)cc2)cc1` are > 100 µM (inactive), > 100 µM (inactive) and > 100 µM (inactive).
On to `COc1cc(O)c2c(c1)C(=O)c1cc3c(c(O)c1C2=O)C(OC1OC(C)C(O)C(O)C1OC)C(OC)C(C)(O)C3=O` (configuration not stated), for which the results for the GI50 in the assay with SN12K1, in the assay on P388/ADR and in the assay with P388 were 2.42 µM (inactive), 7.59 µM (inactive) and 5.66 µM (inactive), respectively.
Take `Cc1ccc(NC(=O)COc2ccc(/C=C3/S/C(=N/c4ccccc4)N(Cc4cccnc4)C3=O)cc2)cc1`: the EC50 in [1] is > 120 µM (not active); in assay [2], > 300 µM (not active); in assay [3], > 300 µM (not active); in assay [5] it was > 120 µM (not active); in assay [7], > 120 µM (not active).
On to `C[C@@H]1CN([C@@H](C)CO)C(=O)c2cccc(NC(=O)C3CC3)c2O[C@H]1CN(C)Cc1ccc(-c2ccccc2)cc1`, for which the AC50 in assay [13] is 3.44 µM (active).
Same read-out and setting: with `COc1cccc(-c2cn(CC[C@@H]3CC[C@H](NS(=O)(=O)c4ccccc4Cl)[C@H](CO)O3)nn2)c1` the figure was 7.33 µM (active); with `COc1ccccc1CN1C[C@@H](C)[C@H](OC)CN(C)C(=O)c2cc(NC(=O)Nc3ccccc3OC)ccc2OC[C@H]1C`, 4.12 µM (active).
Regarding `O=Cc1c(Cn2ccnc2)c2cc([N+](=O)[O-])ccc2n1Cc1ccccc1`, the GI50 in the assay on SN12K1 was 50.8 µM (inactive); in the assay on P388/ADR, 63 µM (inactive); with P388 it was 40.8 µM (inactive).
Taken in the same sequence, the figures for `CCN(CC)CCNc1ccc(CO)c2sc3ccccc3c(=O)c12` [HYCANTHONE MESYLATE] were 7.43 µM (inactive), 7.35 µM (inactive) and 2.94 µM (inactive).
